From patent US9695132B2, “Heteroaryl compounds and uses thereof” (Celgene CAR LLC, priority 2013, dated 2017)
Entries after “also recorded” stand apart in the source; their conditions may differ.

Tests used:
[1] = target: FGFR4 in MDA-MB-453 cells (Homo sapiens, UniProt P22455); assay: Target occupancy assay with biotinylated covalent probe I-127; assay type: cell-based
Procedure: In order to assess free FGFR4 protein a biotinylated covalent probe was utilized. […] The reaction was incubated for 2 hr at room temperature. The samples and probe mixture were transferred to a FGFR4-coated MSD plate for 2 hr at room temperature. MSD signals were obtained with an anti-streptavidin Sulfo-tag (Meso Scale) antibody for 1 hr at room temperature. […] If a compound completely (100%) covalently modies FGFR4 no free FGFR4 should be available for covalent modification by the biotinylated probe and subsequent binding to streptavidin and detection.

[2] = target: pFGFR4 in MDA-MB-453 cells (Homo sapiens, UniProt P22455); assay: Washout experiment (pFGFR4 after compound removal); assay type: cell-based; conditions: 1000-2000 nM for 1 hr, washed, followed up to 24 hr
pFGFR4 in MDA-MB-453 cells, sequence (P22455 22-802 limits assumed): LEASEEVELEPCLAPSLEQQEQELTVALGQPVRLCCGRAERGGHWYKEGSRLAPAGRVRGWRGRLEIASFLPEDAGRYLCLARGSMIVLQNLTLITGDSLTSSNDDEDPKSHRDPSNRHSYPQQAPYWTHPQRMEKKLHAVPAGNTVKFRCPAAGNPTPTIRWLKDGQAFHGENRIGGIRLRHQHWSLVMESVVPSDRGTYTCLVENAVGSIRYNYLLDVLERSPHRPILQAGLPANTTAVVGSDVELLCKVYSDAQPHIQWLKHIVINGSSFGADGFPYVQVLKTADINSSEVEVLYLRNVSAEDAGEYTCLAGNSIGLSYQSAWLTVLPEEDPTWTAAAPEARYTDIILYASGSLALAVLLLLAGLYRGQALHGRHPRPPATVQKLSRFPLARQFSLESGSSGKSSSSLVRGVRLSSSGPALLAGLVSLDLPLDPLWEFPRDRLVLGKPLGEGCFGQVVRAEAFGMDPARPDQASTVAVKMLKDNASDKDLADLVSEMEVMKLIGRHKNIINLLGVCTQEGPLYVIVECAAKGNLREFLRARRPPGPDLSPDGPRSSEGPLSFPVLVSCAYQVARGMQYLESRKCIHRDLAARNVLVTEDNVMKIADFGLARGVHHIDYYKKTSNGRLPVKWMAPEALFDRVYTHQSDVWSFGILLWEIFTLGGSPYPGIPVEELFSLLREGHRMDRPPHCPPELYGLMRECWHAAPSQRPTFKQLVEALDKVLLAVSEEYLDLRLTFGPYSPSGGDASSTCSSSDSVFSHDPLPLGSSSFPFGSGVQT
Procedure: The cells were allowed to settle down for 4 hrs and were then maintained in low-serum (0.1% FBS) media overnight. The following morning, the media was removed and the cells were treated with 1000-2000 nM of test compound in low-serum media for 1 hr. The cells were washed free of test compound (3×) with PBS (Invitrogen). One set of cells was immediately lysed as indicated above as the 0 hr time point. The remaining cells were incubated with the appropriate complete growth media (10-20% FBS) for 1, 2, 4, 8, 16 (in certain circumstances) and 24 hr. DMSO (0.5%) controls were collected at all time points.

FGFR4-WT = FGFR4-WT (Homo sapiens (Human), UniProt P22455); assay: Omnia assay for potency assessment against FGFR4 enzyme; assay type: biochemical; conditions: method b: [FGFR4-WT]=2.5 nM (SignalChem), [ATP]=250 uM, [Y10-Sox]=10 uM
FGFR4-WT, sequence (P22455 22-802): as the sequence (P22455 22-802 limits assumed) above
Outline: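 Continuous fluorescence kinase assay using wild-type FGFR4 from either of two commercial sources, Tyr-Sox peptide substrate and ATP in pH 7.5 Tris buffer with MgCl2, EGTA, β-glycerophosphate, glycerol and DTT.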

FGFR4 in MDA-MB-453 cells, sequence (P22455 22-802 limits assumed): as above

SMILES | EC50 [1] | duration of action against pFGFR4 signalling after washout [2] | IC50 (FGFR4-WT)
C=CC(=O)NC1CCCCC1Nc1ncc2c(n1)N(Cc1cccnc1)C(=O)N(c1c(Cl)c(OC)cc(OC)c1Cl)C2 (racemic) [Compound I-35] | 101 to 500 nM |  | 
C=CC(=O)NC1CCCCC1Nc1ncc2c(n1)N(Cc1ccccc1)C(=O)N(c1c(Cl)c(OC)cc(OC)c1Cl)C2 (racemic) [Compound I-63] | 101 to 500 nM |  | 
C=CC(=O)NC1CCCCC1Nc1ncc2c(n1)N(Cc1cscn1)C(=O)N(c1c(Cl)c(OC)cc(OC)c1Cl)C2 (racemic) [Compound I-69] |  | prolonged inhibition of autophosphorylation of FGFR4; also recorded: prolonged duration of action | 
C=CC(=O)Nc1ccccc1Nc1ncc2c(n1)N(Cc1ccccc1)C(=O)N(c1c(Cl)c(OC)cc(OC)c1Cl)C2 [Compound I-3] | < 100 nM |  | < 100 nM
C=CC(=O)Nc1ccccc1Nc1ncc2c(n1)N(Cc1cccc(F)c1)C(=O)N(c1c(Cl)c(OC)cc(OC)c1Cl)C2 [Compound I-12] | 101 to 500 nM |  | 101 to 500 nM
CCC(=O)Nc1cccc(CN2C(=O)N(c3c(Cl)c(OC)cc(OC)c3Cl)Cc3cnc(Nc4ccccc4NC(=O)CC)nc32)c1 [Compound I-234] | > 1000 nM | does not show prolonged duration of action; also recorded: does not have PDA | 101 to 500 nM
CCC(=O)Nc1ccccc1Nc1ncc2c(n1)N(Cc1ccccc1)C(=O)N(c1c(Cl)c(OC)cc(OC)c1Cl)C2 [Compound I-236] | > 1000 nM |  | 101 to 500 nM
